{
  "source": "patent US9616027B2",
  "about": "“Pramipexole sustained release tablet formulation and manufacturing method thereof and use thereof” (SHIJIAZHUANG RAPISTEP PHARMACEUTICAL TECHNOLOGY R&D INC., priority 2013, dated 2017)",
  "origin": "cited, not measured here",
  "key": {"[1]": {"system": "patients with advanced Parkinson's disease", "conditions": "with levodopa"}, "[2]": {"conditions": "in vivo"}, "[3]": {"test": "not given", "remark": "listed apart in the source"}},
  "note": "Like-named read-outs stand apart in the source and are kept apart here.",
  "data": [
    {"smiles": "CCCN[C@H]1CCc2nc(N)sc2C1", "note": "[Pramipexole, (S)-2-Amino-4,5,6,7-tetrahydro-6-(propylamino) benzothiazole]", "values": [
      {"measurement": "UPDRS score", "setting": "[1]; 0.375 mg increased to 4.5 mg, 18 weeks of treatment", "result": "−11.0"},
      {"measurement": "regulation change of the \"off\" state", "setting": "[1]; 18 weeks of treatment", "result": -2.1, "unit": "h"},
      {"measurement": "UPDRS score", "setting": "[1]; 33 weeks of treatment", "result": "−11.1"},
      {"measurement": "effect of food intake on absorption", "setting": "[2]", "result": "Food intake shall influence absorption"},
      {"measurement": "kinetic characteristics", "setting": "[2]", "result": "linear kinetic characteristics"},
      {"measurement": "solubility in a pH 2 to pH 7.4 buffer media", "setting": "pH 2 to pH 7.4 buffer media", "result": "higher than 10 mg/ml"},
      {"measurement": "Water-solubility", "setting": "water", "result": "greater than 20 mg/ml"},
      {"measurement": "crystal modification (monohydrate) under grinding", "setting": "[3]; grinding", "result": "does not change under grinding"},
      {"measurement": "stability in the solid state", "setting": "[3]; solid state", "result": "very stable"},
      {"measurement": "stability of solution to light", "setting": "[3]; solution", "result": "light sensitive"}
    ]}
  ]
}
